Laboratory results from PubChem BioAssay AID248 (DTP/NCI, 2004).
“And” between values parts separate entries of the source, which are not always exact repeats. Equal values may be shown once. Inconclusive results and toxic doses are left out.

Tested on: L1210 leukemia ip in BDF1 mice, survival T/C
Test: NCI In Vivo Anticancer Drug Screen. Data for tumor model L1210 Leukemia (intraperitoneal) in B6D2F1 (BDF1) mice
Details: endpoint: mean survival time, higher = longer survival
How it was run: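 Survival endpoint. Drug-treated group vs vehicle group, expressed as T divided by C. Tumor passaged by transplantation.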

[1] = dose: 100.0 mg/kg/injection, schedule: Q01DX001 (ip), vehicle: Klucel (hydroxypropylcellulose) (HPC)
[2] = dose: 200.0 mg/kg/injection, schedule: Q01DX001 (ip), vehicle: Klucel (hydroxypropylcellulose) (HPC)
[3] = dose: 400.0 mg/kg/injection, schedule: Q01DX001 (ip), vehicle: Klucel (hydroxypropylcellulose) (HPC)
[4] = dose: 100.0 mg/kg/injection, schedule: Q01DX009 (ip), vehicle: Klucel (hydroxypropylcellulose) (HPC)
[5] = dose: 100.0 mg/kg/injection, schedule: Q04DX002 (ip), vehicle: Klucel (hydroxypropylcellulose) (HPC)
[6] = dose: 200.0 mg/kg/injection, schedule: Q01DX009 (ip), vehicle: Klucel (hydroxypropylcellulose) (HPC)
[7] = dose: 200.0 mg/kg/injection, schedule: Q04DX002 (ip), vehicle: Klucel (hydroxypropylcellulose) (HPC)
[8] = dose: 400.0 mg/kg/injection, schedule: Q01DX009 (ip), vehicle: Klucel (hydroxypropylcellulose) (HPC)
[9] = dose: 100.0 mg/kg/injection, schedule: Q01DX009 (ip), vehicle: saline with Tween-80
[10] = dose: 100.0 mg/kg/injection, schedule: Q04DX003 (ip), vehicle: saline with Tween-80
[11] = dose: 200.0 mg/kg/injection, schedule: Q01DX009 (ip), vehicle: saline with Tween-80
[12] = dose: 200.0 mg/kg/injection, schedule: Q04DX003 (ip), vehicle: saline with Tween-80
[13] = dose: 400.0 mg/kg/injection, schedule: Q01DX009 (ip), vehicle: saline with Tween-80
[14] = dose: 400.0 mg/kg/injection, schedule: Q04DX003 (ip), vehicle: saline with Tween-80
[15] = dose: 100.0 mg/kg/injection, schedule: Q01DX001 (ip), vehicle: saline with Tween-80
[16] = dose: 100.0 mg/kg/injection, schedule: Q04DX002 (ip), vehicle: saline with Tween-80
[17] = dose: 400.0 mg/kg/injection, schedule: Q04DX002 (ip), vehicle: saline with Tween-80

In the case of COC(=O)c1cocc1C(=O)N1Cc2cc3ccccc3nc2C1, the T/C [1] is reported as 103 % of control, the T/C [2] is reported as 95 % of control and the T/C [3] is reported as 94 % of control.

Nc1nc2n(n1)C(=O)C(=O)N2 was tested, and the T/C (dose: 100.0 mg/kg/injection, schedule: Q01DX005 (ip), vehicle: Klucel (hydroxypropylcellulose) (HPC)) was 109 % of control, the T/C [4] was 101 % of control and the T/C [5] was 101 % of control. The T/C (dose: 200.0 mg/kg/injection, schedule: Q01DX005 (ip), vehicle: Klucel (hydroxypropylcellulose) (HPC)) was 98 % of control, the T/C [6] was 104 % of control and the T/C [7] was 96 % of control. The T/C (dose: 400.0 mg/kg/injection, schedule: Q01DX005 (ip), vehicle: Klucel (hydroxypropylcellulose) (HPC)) was 95 % of control, the T/C [8] was 96 % of control and the T/C (dose: 400.0 mg/kg/injection, schedule: Q04DX002 (ip), vehicle: Klucel (hydroxypropylcellulose) (HPC)) was 96 % of control.

In the case of COc1ccc(/C=C/C(=O)c2ccccc2)cc1, the T/C [9] is reported as 93 % of control and 101 % of control, the T/C [10] is reported as 93 % of control and the T/C [11] is reported as 95 % of control and 96 % of control. For the same compound, the T/C [12] was 96 % of control, the T/C [13] was 111 % of control and 91 % of control and the T/C [14] was 104 % of control.

For C/C=C1\CCC2C(=C1C)CC1C2CC=C2CC(OC(C)=O)CCC21C (stereo not given), the T/C [4] was 97 % of control, the T/C (dose: 100.0 mg/kg/injection, schedule: Q04DX003 (ip), vehicle: Klucel (hydroxypropylcellulose) (HPC)) was 94 % of control and the T/C [6] was 87 % of control. The T/C (dose: 200.0 mg/kg/injection, schedule: Q04DX003 (ip), vehicle: Klucel (hydroxypropylcellulose) (HPC)) was 91 % of control, the T/C [8] was 90 % of control and the T/C (dose: 400.0 mg/kg/injection, schedule: Q04DX003 (ip), vehicle: Klucel (hydroxypropylcellulose) (HPC)) was 93 % of control.

CCOP(=O)(CC(=O)OC)OCC was tested, and the T/C (dose: 50.0 mg/kg/injection, schedule: Q04DX003 (ip), vehicle: saline) was 102 % of control, the T/C (dose: 100.0 mg/kg/injection, schedule: Q01DX009 (ip), vehicle: saline) was 103 % of control and the T/C (dose: 100.0 mg/kg/injection, schedule: Q04DX003 (ip), vehicle: saline) was 100 % of control. For the same compound, the T/C (dose: 200.0 mg/kg/injection, schedule: Q01DX009 (ip), vehicle: saline) was 101 % of control, the T/C (dose: 200.0 mg/kg/injection, schedule: Q04DX003 (ip), vehicle: saline) was 102 % of control and the T/C (dose: 400.0 mg/kg/injection, schedule: Q01DX009 (ip), vehicle: saline) was 88 % of control. The T/C (dose: 400.0 mg/kg/injection, schedule: Q04DX003 (ip), vehicle: saline) was 102 % of control.

In the case of O=C(Nc1cc(Cl)ccc1Cl)C(Cl)(Cl)Cl, the T/C [1] is reported as 97 % of control, the T/C [2] is reported as 103 % of control and the T/C [3] is reported as 93 % of control.

For O=NN(CCCl)C(=O)N[C@H]1CCCC[C@H]1O, the T/C (dose: 12.0 mg/kg/injection, schedule: Q01DX001 (ip), vehicle: saline with Tween-80) was 176 % of control, the T/C (dose: 18.0 mg/kg/injection, schedule: Q01DX001 (ip), vehicle: saline with Tween-80) was 301 % of control and the T/C (dose: 26.0 mg/kg/injection, schedule: Q01DX001 (ip), vehicle: saline with Tween-80) was 443 % of control. For the same compound, the T/C (dose: 40.0 mg/kg/injection, schedule: Q01DX001 (ip), vehicle: saline with Tween-80) was 442 % of control and the T/C (dose: 60.0 mg/kg/injection, schedule: Q01DX001 (ip), vehicle: saline with Tween-80) was 205 % of control.

O=[N+]([O-])c1ccc(S(=O)(=O)Nc2ccc(-c3ccccc3)cc2)cc1 was tested, and the T/C (dose: 100.0 mg/kg/injection, schedule: Q01DX009 (ip), vehicle: other) was 110 % of control, the T/C (dose: 100.0 mg/kg/injection, schedule: Q04DX003 (ip), vehicle: other) was 93 % of control and the T/C (dose: 200.0 mg/kg/injection, schedule: Q01DX009 (ip), vehicle: other) was 98 % of control. The T/C (dose: 200.0 mg/kg/injection, schedule: Q04DX003 (ip), vehicle: other) was 96 % of control, the T/C (dose: 400.0 mg/kg/injection, schedule: Q01DX009 (ip), vehicle: other) was 94 % of control and the T/C (dose: 400.0 mg/kg/injection, schedule: Q04DX003 (ip), vehicle: other) was 89 % of control.

In the case of O=C1NC(=S)S/C1=C\c1ccc([N+](=O)[O-])s1, the T/C [5] is reported as 90 % of control and the T/C [7] is reported as 93 % of control.

With N#CC/C(C#N)=C/OC(=O)c1ccc(Cl)cc1 the T/C [4] was 118 % of control, the T/C [6] was 124 % of control and the T/C [8] was 115 % of control.

In the case of [O-]c1on[n+](C2CCCCC2)c1-c1ccccc1, the T/C [10] is reported as 95 % of control, the T/C [12] is reported as 91 % of control and the T/C [14] is reported as 101 % of control.

For CCCCCOc1nccc(N)n1, the T/C (dose: 25.0 mg/kg/injection, schedule: Q01DX001 (ip), vehicle: saline with Tween-80) was 105 % of control, the T/C (dose: 50.0 mg/kg/injection, schedule: Q01DX001 (ip), vehicle: saline with Tween-80) was 92 % of control and the T/C [15] was 95 % of control.

CCOC(=O)c1ccc(Nc2nc3ccccc3o2)cc1 was tested, and the T/C (dose: 100.0 mg/kg/injection, schedule: Q01DX001 (ip), vehicle: carboxymethylcellulose (CMC)) was 91 % of control, the T/C (dose: 200.0 mg/kg/injection, schedule: Q01DX001 (ip), vehicle: carboxymethylcellulose (CMC)) was 94 % of control and the T/C (dose: 400.0 mg/kg/injection, schedule: Q01DX001 (ip), vehicle: carboxymethylcellulose (CMC)) was 93 % of control.

In the case of O=C(Nc1cccc(Cl)c1)Oc1cccc2c1CCC2, the T/C (dose: 100.0 mg/kg/injection, schedule: Q04DX002 (sc), vehicle: olive oil, sesame oil, peanut oil) is reported as 97 % of control, the T/C (dose: 200.0 mg/kg/injection, schedule: Q04DX002 (sc), vehicle: olive oil, sesame oil, peanut oil) is reported as 94 % of control and the T/C (dose: 400.0 mg/kg/injection, schedule: Q04DX002 (sc), vehicle: olive oil, sesame oil, peanut oil) is reported as 102 % of control.

For CCC(C)C(C=NCC(CCN(CC)CC)(c1cccc2ccccc12)C(C)CC)(CCN(CC)CC)c1cccc2ccccc12 (stereo not given), the T/C [16] was 94 % of control, the T/C (dose: 200.0 mg/kg/injection, schedule: Q04DX002 (ip), vehicle: saline with Tween-80) was 97 % of control and the T/C [17] was 87 % of control.

With CCCCCCC(C)O[Si](C)OCC (stereo not given) the T/C [10] was 95 % of control, the T/C [12] was 101 % of control and the T/C [14] was 96 % of control.

CCOC(=O)N1CCc2nc3ccc(Cl)cc3cc21 was tested, and the T/C [15] was 95 % of control, the T/C [9] was 104 % of control and the T/C (dose: 200.0 mg/kg/injection, schedule: Q01DX001 (ip), vehicle: saline with Tween-80) was 93 % of control. The T/C [11] was 110 % of control, the T/C (dose: 400.0 mg/kg/injection, schedule: Q01DX001 (ip), vehicle: saline with Tween-80) was 98 % of control and the T/C [13] was 106 % of control.

With NC(=O)N/N=C/c1ccc[n+]([O-])c1 the T/C (dose: 37.5 mg/kg/injection, schedule: Q04DX002 (ip), vehicle: saline with Tween-80) was 102 % of control, the T/C (dose: 75.0 mg/kg/injection, schedule: Q04DX002 (ip), vehicle: saline with Tween-80) was 108 % of control and the T/C [16] was 86 % of control. The T/C (dose: 150.0 mg/kg/injection, schedule: Q04DX002 (ip), vehicle: saline with Tween-80) was 97 % of control and the T/C [17] was 96 % of control.

In the case of ClCc1ccc(OCc2ccccc2)c(OCc2ccccc2)c1, the T/C (dose: 100.0 mg/kg/injection, schedule: Q04DX003 (ip), vehicle: water) is reported as 104 % of control, the T/C (dose: 200.0 mg/kg/injection, schedule: Q04DX003 (ip), vehicle: water) is reported as 100 % of control and the T/C (dose: 400.0 mg/kg/injection, schedule: Q04DX003 (ip), vehicle: water) is reported as 102 % of control.

CC(C)C(O)c1c[nH]c(=O)[nH]c1=O (stereo not given) was tested, and the T/C [4] was 91 % of control, the T/C [6] was 105 % of control and the T/C [8] was 96 % of control.

With CCOC(C(=O)N(C)CCN(C)CCc1ccccc1)(c1ccccc1)c1ccccc1 the T/C (dose: 100.0 mg/kg/injection, schedule: Q01DX001 (ip), vehicle: saline) was 105 % of control and the T/C (dose: 200.0 mg/kg/injection, schedule: Q01DX001 (ip), vehicle: saline) was 94 % of control.

In the case of CCCCCC(C)NCCOC(=O)c1ccc([N+](=O)[O-])cc1 (stereo not given), the T/C (dose: 75.0 mg/kg/injection, schedule: Q01DX001 (ip), vehicle: other) is reported as 103 % of control, the T/C (dose: 150.0 mg/kg/injection, schedule: Q01DX001 (ip), vehicle: other) is reported as 103 % of control and the T/C (dose: 300.0 mg/kg/injection, schedule: Q01DX001 (ip), vehicle: other) is reported as 106 % of control.
